According to patent US11420970B1 (NOVARTIS AG, priority 2019, dated 2022):
Read-outs that look alike come from different tables or passages of the source.

Tests used:
[1] = system: cellular H3K36me2 level in multiple myeloma cell line KMS11 (t(4;14)+); test: H3K36me2 cellular FRET assay in KMS11-Par line; assay type: cell-based; details: Homo sapiens, KMS-11, KMS11-Par line, cellular H3K36me2 level, FRET; read-out: H3K36me2 FRET in KMS11-Par
Procedure: H3K36Me2 Cellular FRET Assay in KMS11-Par Line
Fluorescence Resonance Energy Transfer (FRET) assay was used to test the ability of candidate compound to reduce cellular H3K36me2 level in multiple myeloma cell line KMS11 (t(4;14)+) (Horizon Discovery Ltd.).
Cells were treated with tested compounds at the desired concentration for 48 hours. […] Histone extract was incubated with Eu labeled anti-H3K36me2 antibody (abcam #ab ab9049) and d2 labeled anti-H3 antibody (abcam #ab1791) for 1 hour at room temperature. A Eu labeled anti-H3 antibody (CISBIO #64CUS000) was used for loading control. The abundancy of H3K36me2 or total H3 was measured by fluorescence signal on Perkin Elmer Envison machine.

NSD2 [1-1365] = NSD2 [1-1365] (Homo sapiens (Human), UniProt O96028); test: LC-MS/MS-based NSD2 enzymatic assay (SAH production); assay type: biochemical; details: read-out: NSD2 IC50
Chain of NSD2 [1-1365] (O96028 whole entry): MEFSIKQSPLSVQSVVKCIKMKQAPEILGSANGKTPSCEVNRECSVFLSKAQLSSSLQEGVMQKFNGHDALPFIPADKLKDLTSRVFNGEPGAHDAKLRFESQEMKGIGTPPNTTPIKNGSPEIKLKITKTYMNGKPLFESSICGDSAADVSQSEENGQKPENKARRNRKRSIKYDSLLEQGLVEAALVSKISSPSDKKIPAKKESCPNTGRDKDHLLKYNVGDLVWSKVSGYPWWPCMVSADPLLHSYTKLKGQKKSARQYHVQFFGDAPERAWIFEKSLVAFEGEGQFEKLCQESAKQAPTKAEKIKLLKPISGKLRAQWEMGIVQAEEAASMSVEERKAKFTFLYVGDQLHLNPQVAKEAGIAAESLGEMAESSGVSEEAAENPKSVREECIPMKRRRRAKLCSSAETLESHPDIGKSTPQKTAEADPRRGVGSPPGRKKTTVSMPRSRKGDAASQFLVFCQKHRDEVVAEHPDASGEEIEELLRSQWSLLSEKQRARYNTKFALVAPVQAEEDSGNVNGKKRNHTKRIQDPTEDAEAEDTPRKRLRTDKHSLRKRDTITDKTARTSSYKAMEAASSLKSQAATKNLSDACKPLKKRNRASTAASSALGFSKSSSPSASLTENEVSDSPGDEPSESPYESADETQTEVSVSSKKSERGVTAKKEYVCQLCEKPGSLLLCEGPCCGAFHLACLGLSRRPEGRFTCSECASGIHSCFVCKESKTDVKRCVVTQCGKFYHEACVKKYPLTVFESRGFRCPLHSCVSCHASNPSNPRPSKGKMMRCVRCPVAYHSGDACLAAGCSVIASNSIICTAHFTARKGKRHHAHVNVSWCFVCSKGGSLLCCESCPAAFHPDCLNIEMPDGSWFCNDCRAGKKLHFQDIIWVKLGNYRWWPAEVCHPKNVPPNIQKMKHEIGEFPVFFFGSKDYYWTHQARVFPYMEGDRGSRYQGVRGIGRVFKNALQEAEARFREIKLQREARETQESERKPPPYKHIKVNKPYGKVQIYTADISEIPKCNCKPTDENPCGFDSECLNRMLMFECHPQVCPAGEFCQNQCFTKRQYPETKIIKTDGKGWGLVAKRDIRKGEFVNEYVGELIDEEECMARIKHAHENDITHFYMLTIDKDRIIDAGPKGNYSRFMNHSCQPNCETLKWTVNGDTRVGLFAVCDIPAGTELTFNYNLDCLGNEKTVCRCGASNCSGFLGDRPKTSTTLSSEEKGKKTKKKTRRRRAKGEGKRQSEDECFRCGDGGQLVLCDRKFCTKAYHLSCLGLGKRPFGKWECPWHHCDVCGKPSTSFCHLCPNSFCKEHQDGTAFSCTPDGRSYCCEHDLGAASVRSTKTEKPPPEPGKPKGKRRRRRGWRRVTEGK
Summary of the method: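 SAH formed was measured by LC-MS/MS using d4-SAH as internal standard and an SAH calibration curve. Compounds were preincubated 20 min with NSD2 [1-1365] and SAM; mouse-liver nucleosome then started a 90 min room-temperature reaction (8 nM enzyme, 1 μM SAM, 400 nM nucleosome final, pH 8.0), stopped with TFA.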

[2] = system: cellular H3K36me2 level in thyroid carcinoma cell line CGTH-W-1 (NSD2 E1099K); test: H3K36me2 cellular ELISA assay in CGTH-W-1 line; assay type: cell-based; details: Homo sapiens, CGTH-W-1, 72 h, read-out: H3K36me2 ELISA in CGTH-W-1
Summary of the method: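 After 72 h compound treatment of NSD2 E1099K-mutant CGTH-W-1 cells, H3K36me2 and total H3 were quantified by ELISA with chemiluminescent read-out. A parallel-seeded plate gave cell viability by CellTiter-Glo.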

[3] = system: cellular H3K36me2 level in multiple myeloma cell line KMS11 (t(4;14)+); test: H3K36me2 cellular ELISA assay in KMS11-Par line; assay type: cell-based; details: Homo sapiens, KMS-11, ELISA, read-out: H3K36me2 ELISA in KMS11-Par
Summary of the method: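 After 72 h compound exposure, HCl-extracted histones from KMS11 (t(4;14)+) cells were probed by ELISA for H3K36me2 against total H3 with a chemiluminescence read-out. Cells were plated at 1,250/well in Opti-MEM plus B-27 and N2 the day before. A parallel CellTiter-Glo plate tracked viability.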

[4] = NSD2 biochemical activity, class symbols
[5] = KMS11-Par line (t(4;14)+), 72 hours treatment

Row | Compound | IC50 [1] | IC50 (NSD2 [1-1365]; [4]) | IC50 [2] | IC50 ([3]; KMS11-Par line, 72 hours) | IC50 (NSD2 [1-1365]) | IC50 [3, 5]
1 | Nc1ncnc2c1ncn2Cc1cc(-c2ccccc2F)ncc1N1CC[C@@H](F)[C@@H](N)C1 [Example 2, 9-((5-((3S,4R)-3-amino-4-fluoropiperidin-1-yl)-2-(2-fluorophenyl)pyridin-4-yl)methyl)-9H-purin-6-amine] | 11100 nM | 10 to 1000 nM |  |  |  | 
2 | C[C@H]1COC[C@@H]([C@@]2(N)CCCN(c3cnc(-c4ccc(F)c(F)c4)cc3Cn3cnc4c(N)ncnc43)C2)O1 [Example 288, 9-((5-((R)-3-amino-3-((2R,6S)-6-methyl-1,4-dioxan-2-yl)piperidin-1-yl)-2-(3,4-difluorophenyl)pyridin-4-yl)methyl)-9H-purin-6-amine] |  |  | 2390 nM | 5720 nM | 10 to 1000 nM | 
3 | Cc1nc([C@@]2(N)CCCN(c3cnc(-c4ccc(F)cc4)cc3Cn3cnc4c(N)ncnc43)C2)ccc1F [Example 190, (R)-9-((5-(3-amino-3-(5-fluoro-6-methylpyridin-2-yl)piperidin-1-yl)-2-(4-fluorophenyl)pyridin-4-yl)methyl)-9H-purin-6-amine] |  |  | 258 nM | 687 nM | 1 to 10 nM | 
4 | Nc1ncnc2c1ncn2Cc1cc(-c2cc(F)c(F)cc2F)ncc1N1CCC[C@](N)(c2cccc(Cl)n2)C1 [Example 237] |  |  | 825 nM | 2020 nM | 10 to 1000 nM | 
5 | Nc1ncnc2c1ncn2Cc1cc(-c2ccc(Cl)cc2F)ncc1N1CCC[C@](N)([C@@H](O)C(F)F)C1 [Example 133, (R)-1-((R)-3-amino-1-(4-((6-amino-9H-purin-9-yl)methyl)-6-(4-chloro-2-fluorophenyl)pyridin-3-yl)piperidin-3-yl)-2,2-difluoroethan-1-ol] |  | 10 to 1000 nM | 177 nM |  |  | 1610 nM
6 | COc1ccc(-c2cc(Cn3cnc4c(N)ncnc43)c(N3CCC[C@](N)([C@@H](O)C(F)F)C3)cn2)cc1F [Example 131, (R)-1-((R)-3-amino-1-(4-((6-amino-9H-purin-9-yl)methyl)-6-(3-fluoro-4-methoxyphenyl)pyridin-3-yl)piperidin-3-yl)-2,2-difluoroethan-1-ol] |  | 1 to 10 nM | 142 nM |  |  | 887 nM
7 | Nc1ncnc2c1ncn2Cc1cc(-c2ccc(F)c(F)c2)ncc1N1CCCC(N)(C(=O)C2CCOCC2)C1 (centres unmarked) [Example 108, (3-amino-1-(4-((6-amino-9H-purin-9-yl)methyl)-6-(3,4-difluorophenyl)pyridin-3-yl)piperidin-3-yl)(tetrahydro-2H-pyran-4-yl)methanone] |  | 10 to 1000 nM | 772 nM |  |  | 1960 nM
8 | Nc1ncnc2c1ncn2Cc1cc(-c2ccc(OC(F)F)cc2F)ncc1N1CCC[C@](N)([C@@H](O)C(F)F)C1 [Example 138, (R)-1-((R)-3-amino-1-(4-((6-amino-9H-purin-9-yl)methyl)-6-(4-(difluoromethoxy)-2-fluorophenyl)pyridin-3-yl)piperidin-3-yl)-2,2-difluoroethan-1-ol] |  | 10 to 1000 nM | 132 nM |  |  | 1570 nM
9 | COc1ccc(-c2cc(Cn3cnc4c(N)ncnc43)c(N3CCC[C@](N)(C(O)C(F)F)C3)cn2)c(C(F)(F)F)c1 (stereo in doubt) [Example 166, (S)-1-((R)-3-amino-1-(4-((6-amino-9H-purin-9-yl)methyl)-6-(4-methoxy-2-(trifluoromethyl)phenyl)pyridin-3-yl)piperidin-3-yl)-2,2-difluoroethan-1-ol] |  | 1 to 10 nM | 432 nM |  |  | 8510 nM
10 | Nc1ncnc2c1ncn2Cc1cc(-c2ccc(F)cc2F)ncc1N1CCC[C@](N)([C@H](O)C(F)F)C1 [Example 151, (S)-1-((R)-3-amino-1-(4-((6-amino-9H-purin-9-yl)methyl)-6-(2,4-difluorophenyl)pyridin-3-yl)piperidin-3-yl)-2,2-difluoroethan-1-ol] |  | 10 to 1000 nM | 842 nM |  |  | 4190 nM
11 | CC(C)(C)C(=O)[C@@]1(N)CCCN(c2cnc(-c3ccc(F)c(F)c3)cc2Cn2cnc3c(N)ncnc32)C1 [Example 109, (R)-1-(3-amino-1-(4-((6-amino-9H-purin-9-yl)methyl)-6-(3,4-difluorophenyl)pyridin-3-yl)piperidin-3-yl)-2,2-dimethylpropan-1-one] |  | 10 to 1000 nM | 2090 nM |  |  | 2730 nM
12 | COc1c(F)cc(-c2cc(Cn3cnc4c(N)ncnc43)c(N3CCC[C@](N)(C(O)C(F)F)C3)cn2)cc1F (stereo in doubt) [Example 164, (R)-1-((R)-3-amino-1-(4-((6-amino-9H-purin-9-yl)methyl)-6-(3,5-difluoro-4-methoxyphenyl)pyridin-3-yl)piperidin-3-yl)-2,2-difluoroethan-1-ol] |  | 1 to 10 nM | 130 nM |  |  | 1060 nM
13 | Nc1ncnc2c1ncn2Cc1cc(-c2ccc(C(F)F)cc2F)ncc1N1CCC[C@](N)([C@@H](O)C(F)F)C1 [Example 132, (R)-1-((R)-3-amino-1-(4-((6-amino-9H-purin-9-yl)methyl)-6-(4-(difluoromethyl)-2-fluorophenyl)pyridin-3-yl)piperidin-3-yl)-2,2-difluoroethan-1-ol] |  | 1 to 10 nM | 264 nM |  |  | 1230 nM
14 | COc1cc(F)c(-c2cc(Cn3cnc4c(N)ncnc43)c(N3CCC[C@](N)([C@H](O)C(F)F)C3)cn2)cc1F [Example 161, (S)-1-((R)-3-amino-1-(4-((6-amino-9H-purin-9-yl)methyl)-6-(2,5-difluoro-4-methoxyphenyl)pyridin-3-yl)piperidin-3-yl)-2,2-difluoroethan-1-ol] |  | 1 to 10 nM | 73 nM |  |  | 502 nM
15 | Nc1ncnc2c1ncn2Cc1cc(-c2ccc(F)cc2C(F)F)ncc1N1CCC[C@](N)([C@H](O)C(F)F)C1 [Example 159, (S)-1-((R)-3-amino-1-(4-((6-amino-9H-purin-9-yl)methyl)-6-(2-(difluoromethyl)-4-fluorophenyl)pyridin-3-yl)piperidin-3-yl)-2,2-difluoroethan-1-ol] |  | 1 to 10 nM | 140 nM |  |  | 1130 nM
16 | COc1cc(F)c(-c2cc(Cn3cnc4c(N)ncnc43)c(N3CCC[C@](N)(c4cccc(Cl)n4)C3)cn2)cc1F [Example 187, (R)-9-((5-(3-amino-3-(6-chloropyridin-2-yl)piperidin-1-yl)-2-(2,5-difluoro-4-methoxyphenyl)pyridin-4-yl)methyl)-9H-purin-6-amine] |  |  | 383 nM | 815 nM | 10 to 1000 nM | 
17 | Nc1ncnc2c1ncn2Cc1cc(-c2cc(F)c(F)cc2C(F)F)ncc1N1CCC[C@](N)([C@@H](O)C(F)F)C1 [Example 170, (R)-1-((R)-3-amino-1-(4-((6-amino-9H-purin-9-yl)methyl)-6-(2-(difluoromethyl)-4,5-difluorophenyl)pyridin-3-yl)piperidin-3-yl)-2,2-difluoroethan-1-ol] |  |  | 161 nM | 1470 nM | 10 to 1000 nM | 
18 | Nc1ncnc2c1ncn2Cc1cc(-c2ccc(F)c(F)c2)ncc1N1CCC[C@](N)(c2nc(F)ccc2O)C1 [Example 239, (R)-2-(3-amino-1-(4-((6-amino-9H-purin-9-yl)methyl)-6-(3,4-difluorophenyl)pyridin-3-yl)piperidin-3-yl)-6-fluoropyridin-3-ol] |  |  | 353 nM | 1540 nM | 1 to 10 nM | 
19 | COc1ncc(-c2cc(Cn3cnc4c(N)ncnc43)c(N3CCC[C@](N)(c4cccc(Cl)n4)C3)cn2)cc1F [Example 231, (R)-9-((5-(3-amino-3-(6-chloropyridin-2-yl)piperidin-1-yl)-5′-fluoro-6′-methoxy-[2,3′-bipyridin]-4-yl)methyl)-9H-purin-6-amine] |  |  | 2150 nM | 7440 nM | 10 to 1000 nM | 
20 | COc1ccc(-c2cc(Cn3cnc4c(N)ncnc43)c(N3CCC[C@](N)([C@H](O)C(F)F)C3)cn2)cc1F [Example 127, (S)-1-((R)-3-amino-1-(4-((6-amino-9H-purin-9-yl)methyl)-6-(3-fluoro-4-methoxyphenyl)pyridin-3-yl)piperidin-3-yl)-2,2-difluoroethan-1-ol] |  | 1 to 10 nM | 262 nM |  |  | 901 nM
21 | COc1ccc(-c2cc(Cn3cnc4c(N)ncnc43)c(N3CCC[C@](N)([C@@H](O)C(F)F)C3)cn2)c(Cl)c1 [Example 169, (R)-1-((R)-3-amino-1-(4-((6-amino-9H-purin-9-yl)methyl)-6-(2-chloro-4-methoxyphenyl)pyridin-3-yl)piperidin-3-yl)-2,2-difluoroethan-1-ol] |  |  | 426 nM | 2990 nM | 10 to 1000 nM | 
